According to patent publication US10669258B2, “3-sulfonyl-5-aminopyridine-2,4-diol APJ agonists” (BRISTOL-MYERS SQUIBB COMPANY, priority 2016, dated 2020):

Target: T1, human APJ receptor (Homo sapiens, UniProt P35414)
T1 construct: expressed in transfected cells; host or cells: HEK293
T1 sequence (P35414 1-380): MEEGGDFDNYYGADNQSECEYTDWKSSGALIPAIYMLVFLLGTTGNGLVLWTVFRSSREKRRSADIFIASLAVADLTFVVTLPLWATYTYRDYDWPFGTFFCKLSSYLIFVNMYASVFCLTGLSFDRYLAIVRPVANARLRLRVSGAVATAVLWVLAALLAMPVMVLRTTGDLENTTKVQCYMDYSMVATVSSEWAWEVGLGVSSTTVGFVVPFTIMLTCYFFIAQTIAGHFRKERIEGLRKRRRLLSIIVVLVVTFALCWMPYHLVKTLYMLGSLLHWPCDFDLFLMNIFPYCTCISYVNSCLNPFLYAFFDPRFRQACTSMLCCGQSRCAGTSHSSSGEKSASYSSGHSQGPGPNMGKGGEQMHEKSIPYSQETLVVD
Assay: Intracellular cAMP accumulation assay (APJ hcAMP, HTRF)
Assay type: cell-based
Conditions: HEK293 cells stably expressing human APJ receptor; inhibition of forskolin-mediated cAMP production; Table 1; read-out: hAPJ cAMP EC50 Potency range
Summary of the method: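 HEK293 cells stably expressing the receptor (5,000/well) treated with compound plus […] and 2 μM forskolin for 30 min at room temperature; cAMP by HTRF against a cAMP standard curve. EC50 from variable-slope sigmoidal fit; Ymax as % of (Pyr1)apelin-13 inhibition.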

Structure (SMILES)	EC50
CCN(c1ccccc1)c1c(-c2cnn(C)c2)nc(O)c(S(=O)(=O)c2ccc(-c3cccnc3C)cc2)c1O [Example 150, 5-(ethyl(phenyl)amino)-6-(1-methyl-1H-pyrazol-4-yl)-3-((4-(2-methylpyridin-3-yl)phenyl)sulfonyl)pyri-dine-2,4-diol]	0.01 to 10 nM
CCN(c1ccccc1)c1c(-c2cnn(C)c2)nc(O)c(S(=O)(=O)c2ccc(-c3ccccc3C(=O)NC)cc2)c1O [Example 151, 4′-((5-(ethyl(phenyl)amino)-2,4-dihydroxy-6-(1-methyl-1H-pyrazol-4-yl)pyridin-3-yl)sulfonyl)-N-methyl-[1,1′-biphenyl]-2-carboxamide]	0.01 to 10 nM
CCN(c1ccccc1)c1c(-c2cnn(C)c2)nc(O)c(S(=O)(=O)c2ccc(-c3ccc(F)nc3C)cc2)c1O [Example 152, 5-(ethyl(phenyl)amino)-3-((4-(6-fluoro-2-methylpyridin-3-yl)phenyl)sulfonyl)-6-(1-methyl-1H-pyrazol-4-yl)pyridine-2,4-diol]	0.01 to 10 nM
CCN(c1ccccc1)c1c(-c2cnn(C)c2)nc(O)c(S(=O)(=O)c2ccc(-c3ccccc3C(=O)NC3CC3)cc2)c1O [Example 153, N-cyclopropyl-4′-((5-(ethyl(phenyl)amino)-2,4-dihydroxy-6-(1-methyl-1H-pyrazol-4-yl)pyridin-3-yl)sulfonyl)-[1,1′-biphenyl]-2-carboxamide]	0.01 to 10 nM
CCN(c1ccccc1)c1c(-c2cnn(C)c2)nc(O)c(S(=O)(=O)c2ccc(-c3ccccc3C(=O)N(C)C)cc2)c1O [Example 154, 4′-((5-(ethyl(phenyl)amino)-2,4-dihydroxy-6-(1-methyl-1H-pyrazol-4-yl)pyridin-3-yl)sulfonyl)-N,N-dimethyl-[1,1′-biphenyl]-2-carboxamide]	0.01 to 10 nM
CCN(c1ccccc1)c1c(-c2cnn(C)c2)nc(O)c(S(=O)(=O)c2ccc(-c3ccc(F)cc3C(N)=O)cc2)c1O [Example 155, 4′-((5-(ethyl(phenyl)amino)-2,4-dihydroxy-6-(1-methyl-1H-pyrazol-4-yl)pyridin-3-yl)sulfonyl)-4-fluoro-[1,1′-biphenyl]-2-carboxamide]	0.01 to 10 nM
CCN(c1ccccc1)c1c(-c2cnn(C)c2)nc(O)c(S(=O)(=O)c2ccc(-c3ccncc3C)cc2)c1O [Example 156, 5-(ethyl(phenyl)amino)-6-(1-methyl-1H-pyraozl-4-yl)-3-((4-(3-methylpyridin-4-yl)phenyl)sulfonyl)pyri-dine-2,4-diol]	0.01 to 10 nM
Cc1nc(F)ccc1-c1ccc(S(=O)(=O)c2c(O)nc(-c3ccn(C)n3)c(N(c3ccccc3)C(C)C)c2O)cc1 [Example 157, 3-((4-(6-fluoro-2-methylpyridin-3-yl)phenyl)sulfonyl)-5-(isopropyl(phen-yl)amino)-6-(1-methyl-1H-pyrazol-3-yl)pyridine-2,4-diol]	0.01 to 10 nM
CNC(=O)c1ccccc1-c1ccc(S(=O)(=O)c2c(O)nc(-c3ccn(C)n3)c(N(c3ccccc3)C(C)C)c2O)cc1 [Example 158, 4′-((2,4-dihydroxy-5-(isopropyl(phen-yl)amino)-6-(1-methyl-1H-pyrazol-3-yl)pyridin-3-yl)sulfonyl)-N-methyl-[1,1′-biphenyl]-2-carboxamide]	0.01 to 10 nM
CC(C)N(c1ccccc1)c1c(-c2ccn(C)n2)nc(O)c(S(=O)(=O)c2ccc(-c3ccccc3C(=O)N(C)C)cc2)c1O [Example 159, 4′-((2,4-dihydroxy-5-(isopropyl(phen-yl)amino)-6-(1-methyl-1H-pyrazol-3-yl)pyridin-3-yl)sulfonyl)-N,N-dimethyl-[1,1′-biphenyl]-2-carboxamide]	0.01 to 10 nM
Cc1c(-c2ccc(S(=O)(=O)c3c(O)nc(-c4ccn(C)n4)c(N4CC(C)(C)c5ccccc54)c3O)cc2)ccnc1F [Example 160, 5-(3,3-dimethylindolin-1-yl)-3-((4-(2-fluoro-3-methylpyridin-4-yl)phenyl)sulfonyl)-6-(1-methyl-1H-pyrazol-3-yl)pyridine-2,4-diol]	10 to 100 nM
CC(C)N(c1ccccc1)c1c(-c2ccn(C)n2)nc(O)c(S(=O)(=O)c2ccc(-c3ccc(F)cc3C(N)=O)cc2)c1O [Example 161, 4′-((2,4-dihydroxy-5-(isopropyl(phenyl)amino)-6-(1-methyl-1H-pyrazol-3-yl)pyridin-3-yl)sulfonyl)-4-fluoro-[1,1′-biphenyl]-2-carboxamide]	0.01 to 10 nM
CC(C)N(c1ccccc1)c1c(-c2ccn(C)n2)nc(O)c(S(=O)(=O)c2ccc(-c3ccccc3C(=O)NC3CC3)cc2)c1O [Example 162, N-cyclopropyl-4′-((2,4-dihydroxy-5-(isopropyl(phen-yl)amino)-6-(1-methyl-1H-pyrazol-3-yl)pyridin-3-y)sulfonyl)-[1,1′-biphenyl]-2-carboxamide]	0.01 to 10 nM
CNC(=O)c1cccc(-c2ccc(S(=O)(=O)c3c(O)nc(-c4ccn(C)n4)c(N(c4ccccc4)C(C)C)c3O)cc2)c1 [Example 163, 4′-((2,4-dihydroxy-5-(isopropyl(phen-yl)amino)-6-(1-methyl-1H-pyrazol-3-yl)pyridin-3-yl)sulfonyl)-N-methyl-[1,1′-biphenyl]-3-carboxamide]	0.01 to 10 nM
Cc1c(-c2ccc(S(=O)(=O)c3c(O)nc(-c4ccn(C)n4)c(N(c4ccccc4)C(C)C)c3O)cc2)ccnc1F [Example 164, 3-((4-(2-fluoro-3-methylpyridin-4-yl)phenyl)sulfonyl)-5-(isopropyl(phen-yl)amino)-6-(1-methyl-1H-pyrazol-3-yl)pyridine-2,4-diol]	0.01 to 10 nM
Cc1ncccc1-c1ccc(S(=O)(=O)c2c(O)nc(-c3ccn(C)n3)c(N(c3ccccc3)C(C)C)c2O)cc1 [Example 165, 5-(iso-propyl(phenyl)amino)-6-(1-methyl-1H-pyrazol-3-yl)-3-((4-(2-methylpyridin-3-yl)phenyl)sulfonyl)pyri-dine-2,4-diol]	0.01 to 10 nM
CC(C)N(c1ccccc1)c1c(-c2ccn(C)n2)nc(O)c(S(=O)(=O)c2ccc(-c3ccccc3C(N)=O)cc2)c1O [Example 166, 4′-((2,4-dihydroxy-5-(isopropyl(phen-yl)amino)-6-(1-methyl-1H-pyrazol-3-yl)pyridin-3-yl)sulfonyl)-[1,1′-biphenyl]-2-carboxamide]	0.01 to 10 nM
CCCCc1nc(O)c(S(=O)(=O)c2ccc(-c3ccccc3C(N)=O)cc2)c(O)c1N1CCCOc2ccccc21 [Example 168, 4′-((6-butyl-5-(3,4-dihydrobenzo[b][1,4]ox-azepin-5(2H)-yl)-2,4-dihydroxypyridin-3-yl)sulfonyl)-[1,1′-biphenyl]-2-carboxamide]	0.01 to 10 nM
CCCCc1nc(O)c(S(=O)(=O)c2ccc(-c3ccncc3C)cc2)c(O)c1N1CCCCc2ccccc21 [Example 169, 6-butyl-3-((4-(3-methylpyridin-4-yl)phenyl)sulfonyl)-5-(2,3,4,5-tetrahydro-1H-benzo[b]azepin-1-yl)pyridine-2,4-diol]	10 to 100 nM
CCCCc1nc(O)c(S(=O)(=O)c2ccc(-c3ccncc3C)cc2)c(O)c1N(CC)c1cccc(C#N)c1 [Example 170, 3-((2-butyl-4,6-dihydroxy-5-((4-(3-methylpyridin-4-yl)phenyl)sulfonyl)pyri-din-3-yl)(ethyl)amino)benzonitrile]	0.01 to 10 nM
CCCCc1nc(O)c(S(=O)(=O)c2ccc(-c3ccccc3C(=O)N(C)C)cc2)c(O)c1N(C)c1ccccc1F [Example 171, 4′-((6-butyl-5-((2-fluorophenyl)(methyl)a-mino)-2,4-dihydroxypyridin-3-yl)sulfonyl)-N,N-dimethyl-[1,1′-biphenyl]-2-carboxamide]	0.01 to 10 nM
CCCCc1nc(O)c(S(=O)(=O)c2ccc(-c3ccnc(F)c3C)cc2)c(O)c1N(CC)c1cccc(C#N)c1 [Example 172, 3-((2-butyl-5-((4-(2-fluoro-3-methylpyridin-4-yl)phenyl)sulfonyl)-4,6-dihydroxypyridin-3-yl)(ethyl)amino)benzonitrile]	0.01 to 10 nM
CCCCc1nc(O)c(S(=O)(=O)c2ccc(-c3cccnc3C)cc2)c(O)c1N1CCCCc2ccccc21 [Example 173, 6-butyl-3-((4-(2-methylpyridin-3-yl)phenyl)sulfonyl)-5-(2,3,4,5-tetrahydro-1H-benzo[b]azepin-1-yl)pyridine-2,4-diol]	10 to 100 nM
CCCCc1nc(O)c(S(=O)(=O)c2ccc(-c3ccccc3C(N)=O)cc2)c(O)c1N(C)c1ccccc1F [Example 174, 4′-((6-butyl-5-((2-fluorophenyl)(methyl)a-mino)-2,4-dihydroxypyridin-3-yl)sulfonyl)-[1,1′-biphenyl]-2-carboxamide]	0.01 to 10 nM
CCCCc1nc(O)c(S(=O)(=O)c2ccc(-c3cccnc3C)cc2)c(O)c1N(CC)c1cccc(C#N)c1 [Example 175, 3-((2-butyl-4,6-dihydroxy-5-((4-(2-methylpyridin-3-yl)phenyl)sulfonyl)pyri-dine-3-yl)(ethyl)amino)benzonitrile]	0.01 to 10 nM
CCCCc1nc(O)c(S(=O)(=O)c2ccc(-c3ccccc3C(=O)NC)cc2)c(O)c1N(C)c1ccccc1F [Example 176, 4′-((6-butyl-5-((2-fluorophenyl)(methyl)a-mino)-2,4-dihydroxypyridin-3-yl)sulfonyl)-N-methyl-[1,1′-biphenyl]-2-carboxamide]	0.01 to 10 nM
CCCCc1nc(O)c(S(=O)(=O)c2ccc(-c3ccc(F)nc3C)cc2)c(O)c1N1CCCCc2ccccc21 [Example 177, 6-butyl-3-((4-(6-fluoro-2-methylpyridin-3-yl)phenyl)sulfonyl)-5-(2,3,4,5-tetrahydro-1H-benzo[b]azepin-1-yl)pyridine-2,4-diol]	10 to 100 nM
